The target of one assay is Mcl-1 protein (UniProtKB primary accession number: Q07820) (Homo sapiens, UniProt Q07820). Description: Inhibition of Mcl-1 by fluorescence polarisation, Method 1. The format is binding. To be noted: read-out: IC50 (M) Mcl-1 FP. The essentials:
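Fluorescence polarisation competition with an 11-point compound dilution series (final DMSO 5%). Mcl-1 protein at 5 nM and fluorescein-labelled ligand at 1 nM (final) in 10 mM HEPES, 150 mM NaCl, 0.05% Tween 20, pH 7.4.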
(In general: Fluorescence polarisation rises when a labelled molecule tumbles more slowly, as on binding a larger partner.)

In assay [1] the test system is H929 multiple myeloma tumour line. Put plainly: In vitro cytotoxicity, Microculture Tetrazolium Assay. The format is cell-based. The following applies: H929 cells, 48 hours exposure, MTT, read-out: IC50 (μM) MTT H929. How it is done:
The cytotoxicity studies were carried out on the H929 multiple myeloma tumour line.
The cells are distributed onto microplates and exposed to the test compounds for 48 hours.

The subject of assay [2] is AMO-1 multiple myeloma cells. Description: Quantification of the cleaved form of PARP in vivo (MSD ELISA, tumour lysates). On the set-up: species or system mice (SCID strain). The following applies: activation factor: cleaved PARP in treated mice / control mice, AMO-1 xenograft in SCID mice, intraveinous or oral routes. How it is done:
The ability of the compounds of the invention to induce apoptosis, by measuring cleaved PARP levels, is evaluated in a xenograft model of AMO-1 multiple myeloma cells. 1.10^7 AMO-1 cells are grafted sub-cutaneously into immunosuppressed mice (SCID strain). 12 to 14 days after the graft, the animals are treated by intraveinous or oral routes with the various compounds. After treatment, the tumour masses are recovered and lysed, and the cleaved form of PARP is quantified in the tumour lysates.
The quantification is carried out using the “Meso Scale Discovery (MSD) ELISA platform” test, which specifically assays the cleaved form of PARP. It is expressed in the form of an activation factor corresponding to the ratio between the quantity of cleaved PARP in the treated mice divided by the quantity of cleaved PARP in the control mice.
Background: ELISA stands for enzyme-linked immunosorbent assay.

Where [3] appears, read: fluorescence polarisation test, Method 2 values are underlined in the patent (underlining not visible here).
Where [4] appears, read: fluorescence polarisation, Method 1, or Method 2.

Read-outs that look alike come from different tables or passages of the source.

The term IC50 denotes the concentration that inhibits the measured activity by half.

Sequence of Mcl-1 protein (Q07820 whole entry): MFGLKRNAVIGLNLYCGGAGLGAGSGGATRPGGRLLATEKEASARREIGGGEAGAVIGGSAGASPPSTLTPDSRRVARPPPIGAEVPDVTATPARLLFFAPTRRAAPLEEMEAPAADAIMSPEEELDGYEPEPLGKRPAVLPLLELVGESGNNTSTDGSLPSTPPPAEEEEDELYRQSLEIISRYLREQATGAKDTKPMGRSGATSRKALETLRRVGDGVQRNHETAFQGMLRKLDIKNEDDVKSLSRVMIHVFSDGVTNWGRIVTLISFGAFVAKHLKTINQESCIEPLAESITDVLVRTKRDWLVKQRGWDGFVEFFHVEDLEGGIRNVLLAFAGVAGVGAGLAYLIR

With `Cc1c(-c2c(-c3ccco3)sc3ncnc(OC(Cc4ccccc4OCc4ccnc(OCC5CC5)n4)C(=O)O)c23)ccc(OCCN2CCN(C)CC2)c1Cl` [Example 256, (2R)-2-{[(5Sa)-5-{3-chloro-2-methyl-4-[2-(4-methylpiperazin-1-yl)ethoxy]phenyl}-6-(furan-2-yl)thieno[2,3-d]pyrimidin-4-yl]oxy}-3-(2-{[2-(cyclopropylmethoxy)pyrimidin-4-yl]methoxy}phenyl)propanoic acid], the IC50 on Mcl-1 protein (setting [3]) came to 4.8e-09 M; in assay [1] (Homo sapiens, NCI-H929, 48 h), 0.006 µM. In assay [2], this molecule displayed a PARP fold of 125.1 fold.
In the case of `CC#Cc1sc2ncnc(O[C@H](Cc3ccccc3OCc3ccnc(-c4ccncc4C)n3)C(=O)O)c2c1-c1ccc(OCCN2CCN(C)CC2)c(Cl)c1C` [Example 483, (2R)-2-{[(5Sa)-5-{3-chloro-2-methyl-4-[2-(4-methylpiperazin-1-yl)ethoxy]phenyl}-6-(prop-1-yn-1-yl)thieno[2,3-d]pyrimidin-4-yl]oxy}-3-(2-{[2-(3-methylpyridin-4-yl)pyrimidin-4-yl]methoxy}phenyl)propanoic acid], the IC50 came to 5.2e-09 M at Mcl-1 protein (setting [4]) and 0.003 µM in assay [1]. Further, in assay [2], the PARP fold turned out to be 411 fold.
Regarding `Cc1c(-c2c(-c3ccc(F)o3)sc3ncnc(OC(Cc4ccccc4OCc4ccnc(C5CC5)n4)C(=O)O)c23)ccc(OCCN2CCN(C)CC2)c1Cl` [Example 170, (2R)-2-{[(5Sa)-5-{3-chloro-2-methyl-4-[2-(4-methylpiperazin-1-yl)ethoxy]phenyl}-6-(5-fluorofuran-2-yl)thieno[2,3-d]pyrimidin-4-yl]oxy}-3-{2-[(2-cyclopropylpyrimidin-4-yl)methoxy]phenyl}propanoic acid], the IC50 on Mcl-1 protein (setting [3]) stood at 5.3e-09 M; in assay [1] (Homo sapiens, NCI-H929, 48 h) it was 0.006 µM. The PARP fold in assay [2] stood at 144 fold.
As for `CCOc1nccc(COc2ccccc2CC(Oc2ncnc3sc(-c4ccc(F)o4)c(-c4ccc(OCCN5CCN(C)CC5)c(Cl)c4C)c23)C(=O)O)n1` [Example 177, (2R)-2-{[(5Sa)-5-{3-chloro-2-methyl-4-[2-(4-methylpiperazin-1-yl)ethoxy]phenyl}-6-(5-fluorofuran-2-yl)thieno[2,3-d]pyrimidin-4-yl]oxy}-3-{2-[(2-ethoxypyrimidin-4-yl)methoxy]phenyl}propanoic acid], the IC50 at Mcl-1 protein (setting [3]) was determined as 2.8e-09 M; in assay [1] (Homo sapiens, NCI-H929, 48 h) it was 0.005 µM. The molecule also had a PARP fold in assay [2] of 233.8 fold.
On to `CC#Cc1sc2ncnc(OC(Cc3ccccc3OCc3ccnn3CC(F)(F)F)C(=O)O)c2c1-c1ccc(OCCN2CCN(C)CC2)c(Cl)c1C` [Example 489, (2R)-2-{[(5Sa)-5-{3-chloro-2-methyl-4-[2-(4-methylpiperazin-1-yl)ethoxy]phenyl}-6-(prop-1-yn-1-yl)thieno[2,3-d]pyrimidin-4-yl]oxy}-3-(2-{[1-(2,2,2-trifluoroethyl)-1H-pyrazol-5-yl]methoxy}phenyl)propanoic acid], for which the IC50 on Mcl-1 protein (setting [4]) was determined as 1.2e-09 M; in assay [1] (Homo sapiens, NCI-H929, 48 h), 0.026 µM. In assay [2], this molecule gave a PARP fold of 233.2 fold.
Turning to `Cc1ccncc1-c1nccc(COc2ccccc2CC(Oc2ncnc3sc(-c4ccc(F)cc4)c(-c4ccc(OCCN(C)C)c(Cl)c4C)c23)C(=O)O)n1` [Example 138, (2R)-2-{[(5Sa)-5-{3-chloro-4-[2-(dimethylamino)ethoxy]-2-methylphenyl}-6-(4-fluorophenyl)thieno[2,3-d]pyrimidin-4-yl]oxy}-3-(2-{[2-(4-methylpyridin-3-yl)pyrimidin-4-yl]methoxy}phenyl)propanoic acid], the IC50 on Mcl-1 protein (setting [3]) was 8.9e-09 M; in assay [1] (Homo sapiens, NCI-H929, 48 h), 0.013 µM. Further, the PARP fold in assay [2] was found to be 333.9 fold.
For the molecule `COc1ccccc1-c1nccc(COc2ccccc2CC(Oc2ncnc3sc(-c4ccc(F)cc4)c(-c4ccc(OCCN5CCN(C)CC5)c(Cl)c4Cl)c23)C(=O)O)n1` [Example 743, (2R)-2-{[(5Sa)-5-{2,3-dichloro-4-[2-(4-methylpiperazin-1-yl)ethoxy]phenyl}-6-(4-fluorophenyl)thieno[2,3-d]pyrimidin-4-yl]oxy}-3-(2-{[2-(2-methoxyphenyl)pyrimidin-4-yl]methoxy}phenyl)propanoic acid], the IC50 at Mcl-1 protein (setting [4]) was 9.48e-10 M; in assay [1] (Homo sapiens, NCI-H929, 48 h), 0.005 µM. This molecule also came in with a PARP fold in assay [2] of 147.3 fold.

The record behind these values is patent publication US9670227B2, “Thienopyrimidine derivatives, a process for their preparation and pharmaceutical compositions containing them” (LES LABORATOIRES SERVIER, priority 2013, dated 2017).
